Measurements as given in patent publication US10292391B2, “Pesticidally active 1,2,4-triazole derivatives with sulphur containing substituents” (Syngenta Participations AG, priority 2015, dated 2019).

How the values were obtained:
Type in all cases: in vivo
[1] = tested on: Spodoptera littoralis (Egyptian Cotton Leaf Worm); assay: Activity against Spodoptera littoralis, sprayed cotton leaf discs; settings: foliar, 72 h, application rate of 200 ppm, L1 larvae, 3 days after infestation, read-out: control (at least one of mortality, anti-feedant effect, and growth inhibition)
Experimental: Cotton leaf discs were placed on agar in 24-well microtiter plates and sprayed with aqueous test solutions prepared from 10,000 ppm DMSO stock solutions. After drying the leaf discs were infested with five L1 larvae. The samples were assessed for mortality, anti-feedant effect, and growth inhibition in comparison to untreated samples 3 days after infestation. Control of Spodoptera littoralis by a test sample is when at least one of mortality, anti-feedant effect, and growth inhibition is higher than the untreated sample.

[2] = tested on: Spodoptera littoralis (Egyptian Cotton Leaf Worm); assay: Activity against Spodoptera littoralis, systemic via lettuce grown on treated agar; settings: 144 h, test rate of 12.5 ppm, root uptake by lettuce, 6 days after infestation, read-out: effect in at least one of the three categories (mortality, anti-feedancy, or growth inhibition)
From the text: Test compounds were applied by pipette from 10,000 ppm DMSO stock solutions into 24-well plates and mixed with agar. Lettuce seeds were placed on the agar and the multi well plate was closed by another plate which contains also agar. After 7 days the roots have absorbed the compound and the lettuce has grown into the lid plate. The lettuce leafs were now cut off into the lid plate. Spodoptera eggs were pipetted through a plastic stencil on a humid gel blotting paper and the plate closed with it. The samples were assessed for mortality, anti-feedant effect and growth inhibition in comparison to untreated samples 6 days after infestation.

[3] = tested on: Plutella xylostella (Diamond Back Moth); assay: Activity against Plutella xylostella, treated artificial diet; settings: 120 h, application rate of 200 ppm, L2 larvae, 5 days after infestation, read-out: effect in at least one of the two categories (mortality or growth inhibition)
Experimental: (§1) 24-well microtiter plates with artificial diet were treated with aqueous test solutions prepared from 10,000 ppm DMSO stock solutions by pipetting. After drying, the plates were infested with L2 larvae (10 to 15 per well). The samples were assessed for mortality and growth inhibition in comparison to untreated samples 5 days after infestation.

[4] = tested on: Diabrotica Balteata (Corn Root Worm); assay: Activity against Diabrotica balteata, sprayed maize sprouts; settings: 96 h, application rate of 200 ppm, L2 larvae, 4 days after infestation, read-out: effect in at least one of the two categories (mortality or growth inhibition)
Experimental: as §1, with “Maize sprouts, placed on an agar layer in 24-well” for “24-well”, “plates” for “plates with artificial diet”, “spraying.” for “pipetting.”, “(6” for “(10”, “10” for “15”, “4” for “5”

[5] = tested on: Myzus persicae (Green Peach Aphid); assay: Activity against Myzus persicae, sprayed sunflower leaf discs; settings: foliar, 144 h, application rate of 200 ppm, aphid population of mixed ages, 6 days after infestation
Experimental: (§2) Sunflower leaf discs were placed on agar in a 24-well microtiter plate and sprayed with aqueous test solutions prepared from 10,000 ppm DMSO stock solutions. After drying, the leaf discs were infested with an aphid population of mixed ages. The samples were assessed for mortality 6 days after infestation.

[6] = tested on: Frankliniella occidentalis (Western Flower Thrips); assay: Activity against Frankliniella occidentalis, sprayed sunflower leaf discs; settings: foliar, 168 h, application rate of 200 ppm, population of mixed ages, 7 days after infestation
Experimental: as §2, with “in” for “in a”, “plates” for “plate”, “10,000” for “10,000 ppm”, “drying” for “drying,”, “a Frankliniella” for “an aphid”, “7” for “6”

[7] = tested on: Euschistus heros(Neotropical Brown Stink Bug); assay: Activity against Euschistus heros, sprayed soybean leaf; settings: 120 h, application rate of 200 ppm, N-2 nymphs, 5 days after infestation, read-out: effect in at least one of the two categories (mortality or growth inhibition)
Experimental: Soybean leaf on agar in 24-well microtiter plates were sprayed with aqueous test solutions prepared from 10,000 ppm DMSO stock solutions. After drying the leaf were infested with N-2 nymphs. The samples were assessed for mortality and growth inhibition in comparison to untreated samples 5 days after infestation.

[8] = tested on: Thrips tabaci (Onion Thrips); assay: Activity against Thrips tabaci, sprayed sunflower leaf discs; settings: foliar, 144 h, application rate of 200 ppm, thrips population of mixed ages, 6 days after infestation
Experimental: as §2, with “in” for “in a”, “plates” for “plate”, “drying” for “drying,”, “a thrips” for “an aphid”

[9] = tested on: Myzus persicae (Green Peach Aphid); assay: Activity against Myzus persicae, systemic via roots of pea seedlings; settings: 144 h, test rate of 24 ppm, roots of pea seedlings in test solution, 6 days
Experimental: Roots of pea seedlings infested with an aphid population of mixed ages were placed directly in the aqueous test solutions prepared from 10,000 DMSO stock solutions. The samples were assessed for mortality 6 days after placing seedlings in test solutions.

CCS(=O)(=O)c1cc(-n2cc(Cl)cn2)cnc1-c1nnc(-c2cc(C(F)(F)F)ccn2)n1C [Compound P7]
≥ 80%: mortality at 200 ppm [1] | percent control (mortality, anti-feedancy or growth inhibition) at 12.5 ppm [2] | percent effect (mortality or growth inhibition) at 200 ppm [3] | percent effect (mortality or growth inhibition) at 200 ppm [4] | mortality at 200 ppm [5] | mortality at 200 ppm [6] | percent effect (mortality or growth inhibition) at 200 ppm [7] | mortality at 200 ppm [8]

CCS(=O)(=O)c1cc(-c2ncccn2)cnc1-c1nnc(-c2cc(C(F)(F)F)ccn2)n1C [Compound P9, 2-[5-ethylsulfonyl-6-[4-methyl-5-[4-(trifluoromethyl)-2-pyridyl]-1,2,4-triazol-3-yl]-3-pyridyl]pyrimidine]
≥ 80%: mortality at 200 ppm [1] | percent control (mortality, anti-feedancy or growth inhibition) at 12.5 ppm [2] | percent effect (mortality or growth inhibition) at 200 ppm [3] | percent effect (mortality or growth inhibition) at 200 ppm [4] | mortality at 200 ppm [5] | mortality at 24 ppm [9] | mortality at 200 ppm [6] | percent effect (mortality or growth inhibition) at 200 ppm [7]

C=C(OCC)c1cnc(-c2nnc(-c3cc(C(F)(F)F)ccn3)n2C)c(S(=O)(=O)CC)c1 [Compound P13]
≥ 80%: mortality at 200 ppm [1] | percent effect (mortality or growth inhibition) at 200 ppm [3] | percent effect (mortality or growth inhibition) at 200 ppm [4] | mortality at 200 ppm [5] | mortality at 200 ppm [6] | mortality at 200 ppm [8]

CCS(=O)(=O)c1cc(-n2cnc(C#N)c2)cnc1-c1nnc(-c2cc(C(F)(F)F)ccn2)n1C [Compound P15]
≥ 80%: mortality at 24 ppm [9] | mortality at 200 ppm [8]

CCS(=O)(=O)c1cc(-c2ccc(C#N)cn2)cnc1-c1nnc(-c2cc(C(F)(F)F)ccn2)n1C [Compound P22]
≥ 80%: mortality at 200 ppm [1] | percent control (mortality, anti-feedancy or growth inhibition) at 12.5 ppm [2] | percent effect (mortality or growth inhibition) at 200 ppm [3] | percent effect (mortality or growth inhibition) at 200 ppm [4] | mortality at 200 ppm [5] | mortality at 200 ppm [6] | percent effect (mortality or growth inhibition) at 200 ppm [7] | mortality at 200 ppm [8]

CCS(=O)(=O)c1cc(-c2ccc(Cl)cn2)cnc1-c1nnc(-c2cc(C(F)(F)F)ccn2)n1C [Compound P25]
≥ 80%: mortality at 200 ppm [1] | percent control (mortality, anti-feedancy or growth inhibition) at 12.5 ppm [2] | percent effect (mortality or growth inhibition) at 200 ppm [3] | percent effect (mortality or growth inhibition) at 200 ppm [4] | percent effect (mortality or growth inhibition) at 200 ppm [7] | mortality at 200 ppm [8]

CCS(=O)(=O)c1cc(-c2cc(Cl)ccn2)cnc1-c1nnc(-c2cc(C(F)(F)F)ccn2)n1C [Compound P26]
≥ 80%: mortality at 200 ppm [1] | percent control (mortality, anti-feedancy or growth inhibition) at 12.5 ppm [2] | percent effect (mortality or growth inhibition) at 200 ppm [3] | percent effect (mortality or growth inhibition) at 200 ppm [4] | mortality at 200 ppm [5] | mortality at 200 ppm [6] | percent effect (mortality or growth inhibition) at 200 ppm [7] | mortality at 200 ppm [8]

CCS(=O)(=O)c1ccc(-c2ncccn2)nc1-c1nnc(-c2cc(C(F)(F)F)ccn2)n1C [Compound P39]
≥ 80%: mortality at 200 ppm [1] | percent control (mortality, anti-feedancy or growth inhibition) at 12.5 ppm [2] | percent effect (mortality or growth inhibition) at 200 ppm [3] | percent effect (mortality or growth inhibition) at 200 ppm [4] | mortality at 200 ppm [5] | mortality at 24 ppm [9] | percent effect (mortality or growth inhibition) at 200 ppm [7]

CCS(=O)(=O)c1cc(-n2cncn2)cnc1-c1nnc(-c2cc(C(F)(F)F)ncn2)n1C [Compound P46]
≥ 80%: percent effect (mortality or growth inhibition) at 200 ppm [4] | mortality at 200 ppm [5] | mortality at 24 ppm [9] | mortality at 200 ppm [6]

CCS(=O)(=O)c1ccc(-n2cncn2)nc1-c1nnc(-c2cc(C(F)(F)F)ncn2)n1C [Compound P47]
≥ 80%: percent effect (mortality or growth inhibition) at 200 ppm [4] | mortality at 200 ppm [5] | mortality at 24 ppm [9] | percent effect (mortality or growth inhibition) at 200 ppm [7]

CCS(=O)(=O)c1ccc(-c2ncccn2)nc1-c1nnc(-c2cc(C(F)(F)F)ncn2)n1C [Compound P54]
≥ 80%: percent effect (mortality or growth inhibition) at 200 ppm [3] | percent effect (mortality or growth inhibition) at 200 ppm [4] | mortality at 200 ppm [5] | mortality at 24 ppm [9] | mortality at 200 ppm [6] | percent effect (mortality or growth inhibition) at 200 ppm [7]
